# Measured values from patent US10562912B2 (C&C Research Laboratories, priority 2013, dated 2020).
# What was measured:
# Format in all cases: cell-based
# DU-145 = experiment: Cell growth inhibition assay, prostate cancer cell line DU-145; settings: Homo sapiens, DU-145 prostate cancer cell line
# How it was run: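 Viability by CellTiter-Glo luminescence after 72–96 h of compound dosing at 37° C. under 5% CO2; DU-145 and HCT116 seeded at 3,000 cells/well, SW626 at 5,000 cells/well.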
# LNCaP = experiment: Cell growth inhibition assay, prostate cancer cell line LNCaP (medium with 10 ng/mL IL-6); settings: Homo sapiens, medium supplemented with 10 ng/mL of IL-6, 10,000 cells/well
# STAT3 = biological target: T1, STAT3 (Homo sapiens, UniProt P40763); experiment: STAT3 reporter gene assay (luciferase), LNCaP stable cell line (pSTAT3-TA-luc), IL-6 stimulation
# T1 construct: plasmid pSTAT3-TA-luc), which contains a stably operating STAT3 promoter; endogenous in cells
# T1 sequence (P40763 whole entry): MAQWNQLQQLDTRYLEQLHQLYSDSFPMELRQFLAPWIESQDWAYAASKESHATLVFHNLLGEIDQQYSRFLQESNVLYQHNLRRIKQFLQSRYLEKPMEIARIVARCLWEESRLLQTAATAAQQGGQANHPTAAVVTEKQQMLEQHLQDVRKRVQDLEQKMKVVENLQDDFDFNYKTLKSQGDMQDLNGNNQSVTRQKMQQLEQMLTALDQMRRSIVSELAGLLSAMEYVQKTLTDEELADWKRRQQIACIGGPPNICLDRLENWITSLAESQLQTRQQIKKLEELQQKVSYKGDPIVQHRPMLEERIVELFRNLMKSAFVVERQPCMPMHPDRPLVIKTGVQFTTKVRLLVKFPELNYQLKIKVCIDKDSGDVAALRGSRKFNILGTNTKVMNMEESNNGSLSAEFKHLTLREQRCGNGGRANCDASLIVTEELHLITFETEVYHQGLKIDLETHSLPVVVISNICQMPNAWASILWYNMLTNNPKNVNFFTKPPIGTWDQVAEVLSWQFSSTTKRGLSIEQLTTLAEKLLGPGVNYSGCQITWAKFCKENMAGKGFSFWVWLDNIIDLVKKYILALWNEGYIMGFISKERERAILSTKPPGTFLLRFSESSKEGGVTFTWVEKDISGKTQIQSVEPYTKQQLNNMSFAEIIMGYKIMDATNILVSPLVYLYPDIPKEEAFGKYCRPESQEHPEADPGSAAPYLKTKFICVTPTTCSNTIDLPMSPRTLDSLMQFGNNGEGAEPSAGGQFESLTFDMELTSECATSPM
# How it was run: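 Cytotoxicity was run on a duplicate plate with CellTiter-Glo, while the other plate gave luciferase read-outs from lysed LNCaP pSTAT3-TA-luc reporter cells. Cells were treated with graded compound concentrations plus IL-6 (10 ng/mL final) for 24–48 h in 3% DCC-FBS medium. Unstimulated and stimulated wells served as negative and positive controls.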
# MDA-MB-231 = experiment: Cell growth inhibition assay, breast cancer cell line MDA-MB-231; settings: Homo sapiens; MDA-MB-231 breast cancer cell line, 5,000 cells/well
IC50 (DU-145),IC50 (LNCaP),IC50 (STAT3),IC50 (MDA-MB-231),Compound
0.044 µM,0.15 µM,0.034 µM,0.021 µM,"CC(C)(c1ccc(F)cc1)c1cc(Br)cc(NC(=O)c2cc3cc(NS(C)(=O)=O)ccc3s2)c1 [Example 32, N-(3-bromo-5-(2-(4-fluorophenyl)propan-2-yl)phenyl)-5-(methylsulfonamido)benzo[b]thiophene-2-carboxamide]"
0.13 µM,0.3 µM,0.082 µM,0.074 µM,"CS(=O)(=O)Nc1ccc2sc(C(=O)Nc3cc(Br)cc(C4(c5ccc(F)cc5F)CC4)c3)cc2c1 [Example 426, N-(3-bromo-5-(1-(2,4-difluorophenyl)cyclopropyl)phenyl)-5-(methylsulfonamido)benzo[b]thiophene-2-carboxamide]"
0.046 µM,0.17 µM,0.048 µM,0.036 µM,"CCC(CC)(c1cc(NC(=O)c2cc3cc(NS(C)(=O)=O)ccc3s2)cc(OC)c1)c1cc(OC)cc(OC(F)(F)F)c1 [Example 54, N-(3-methoxy-5-(3-(3-methoxy-5-(trifluoromethoxy)phenyl)pentan-3-yl)phenyl)-5-(methylsulfonamido)benzo[b]thiophene-2-carboxamide]"
1.7 µM,5.6 µM,2.5 µM,1.5 µM,"CN1CCN(Cc2cccc(C(C)(C)c3cc(Br)cc(NC(=O)c4cc5cc(NS(C)(=O)=O)ccc5s4)c3)c2)CC1 [Example 115, N-(3-bromo-5-(2-(3-((4-methylpiperazin-1-yl)methyl)phenyl)propan-2-yl)phenyl)-5-(methylsulfonamido)benzo[b]thiophene-2-carboxamide]"
4.9 µM,5.8 µM,2.7 µM,3.6 µM,"CC(C)(c1cc(Br)cc(NC(=O)c2cc3cc(NS(C)(=O)=O)ccc3s2)c1)c1cccc(OCC(N)=O)c1 [Example 43, N-(3-(2-(3-(2-amino-2-oxoethoxy)phenyl)propan-2-yl)-5-bromophenyl)-5-(methylsulfonamido)benzo[b]thiophene-2-carboxamide]"
0.19 µM,0.9 µM,0.22 µM,0.054 µM,"CC(C)(c1ccc(F)cc1)c1cc(Cl)cc(NC(=O)c2cc3ccc(NS(C)(=O)=O)cc3[nH]2)c1 [Example 21, N-(3-chloro-5-(2-(4-fluorophenyl)propan-2-yl)phenyl)-6-(methylsulfonamido)-1H-indole-2-carboxamide]"
0.037 µM,0.15 µM,0.035 µM,0.003 µM,"COc1cc(OC(F)(F)F)cc(C(C)(C)c2cccc(NC(=O)c3cc4cc(NS(C)(=O)=O)ccc4s3)c2)c1 [Example 33, N-(3-(2-(3-methoxy-5-(trifluoromethoxy)phenyl)propan-2-yl)phenyl)-5-(methylsulfonamido)benzo[b]thiophene-2-carboxamide]"
,0.37 µM,0.28 µM,0.019 µM,"COc1cc(NC(=O)c2cc3cc(NS(C)(=O)=O)ccc3s2)cc(-c2ccc(F)cc2F)c1 [Example 317, N-(2′,4′-difluoro-5-methoxy-[1,1′-biphenyl]-3-yl)-5-(methylsulfonamido)benzo[b]thiophene-2-carboxamide]"
,5.4 µM,1.8 µM,2.7 µM,"Cc1c(C(=O)Nc2cccc(-c3ccc(F)cc3F)c2)sc2cc(NS(C)(=O)=O)ccc12 [Example 241, N-(2′,4′-difluoro-[1,1′-biphenyl]-3-yl)-3-methyl-6-(methylsulfonamido)benzo[b]thiophene-2-carboxamide]"
,4.1 µM,2.3 µM,2.1 µM,CNS(=O)(=O)Nc1ccc2cc(C(=O)Nc3cccc(-c4ccccc4C(F)(F)F)c3)[nH]c2c1 [Example 269]
1.2 µM,2.6 µM,0.23 µM,2.2 µM,"CC(C)(C)OC(=O)N1CCN(Cc2cccc(C(C)(C)c3cc(Br)cc(NC(=O)c4cc5ccc(NS(C)(=O)=O)cc5[nH]4)c3)c2)CC1 [Example 117, tert-butyl 4-(3-(2-(3-bromo-5-(6-(methylsulfonamido)-1H-indole-2-carboxamido)phenyl)propan-2-yl)benzyl)piperazine-1-carboxylate]"
,6.6 µM,1.7 µM,1.2 µM,"CS(=O)(=O)Nc1ccc2cc(C(=O)Nc3cc(-c4cccnc4)cc(-c4ccc(F)cc4F)c3)[nH]c2c1 [Example 357, N-(2′,4′-difluoro-5-(pyridin-3-yl)-[1,1′-biphenyl]-3-yl)-6-(methylsulfonamido)-1H-indole-2-carboxamide]"
0.15 µM,0.52 µM,0.12 µM,0.088 µM,"COc1cc2cc(C(=O)Nc3cc(Br)cc(C(C)(C)c4ccc(F)cc4)c3)[nH]c2cc1NS(C)(=O)=O [Example 19, N-(3-bromo-5-(2-(4-fluorophenyl)propan-2-yl)phenyl)-5-methoxy-6-(methylsulfonamido)-1H-indole-2-carboxamide]"
,9.9 µM,3.6 µM,3.3 µM,"CS(=O)(=O)Nc1ccc2cc(C(=O)Nc3cc(-c4ccncc4)cc(-c4ccc(F)cc4F)c3)[nH]c2c1 [Example 356, N-(2′,4′-difluoro-5-(pyridin-4-yl)-[1,1′-biphenyl]-3-yl)-6-(methylsulfonamido)-1H-indole-2-carboxamide]"
,0.31 µM,0.078 µM,0.073 µM,"C#Cc1cc(NC(=O)c2cc3cc(NS(C)(=O)=O)ccc3s2)cc(C(C)(C)c2ccc(F)cc2)c1 [Example 108, N-(3-ethynyl-5-(2-(4-fluorophenyl)propan-2-yl)phenyl)-5-(methylsulfonamido)benzo[b]thiophene-2-carboxamide]"
,1.1 µM,0.2 µM,0.089 µM,"CS(=O)(=O)Nc1ccc2sc(C(=O)Nc3cccc(C4(c5ccccc5)CC4)c3)cc2c1 [Example 421, 5-(methylsulfonamido)-N-(3-(1-phenylcyclopropyl)phenyl)benzo[b]thiophene-2-carboxamide]"
,1.8 µM,0.2 µM,0.06 µM,"CC(C)(c1cccc(NC(=O)c2cc3ccc(NS(C)(=O)=O)cc3[nH]2)c1)c1ccc(F)cc1F [Example 11, N-(3-(2-(2,4-difluorophenyl)propan-2-yl)phenyl)-6-(methylsulfonamido)-1H-indole-2-carboxamide]"
,0.41 µM,0.13 µM,0.085 µM,"COc1cc(NC(=O)c2cc3cc(NS(C)(=O)=O)ccc3s2)cc(C2(c3cc(OC)cc(OC(F)(F)F)c3)CC2)c1 [Example 427, N-(3-methoxy-5-(1-(3-methoxy-5-(trifluoromethoxy)phenyl)cyclopropyl)phenyl)-5-(methylsulfonamido)benzo[b]thiophene-2-carboxamide]"
,1.1 µM,0.14 µM,0.028 µM,"CN(C)c1cc(NC(=O)c2cc3cc(NS(C)(=O)=O)ccc3s2)cc(-c2ccc(F)cc2F)c1 [Example 375, N-(5-(dimethylamino)-2′,4′-difluoro-[1,1′-biphenyl]-3-yl)-5-(methylsulfonamido)benzo[b]thiophene-2-carboxamide]"
,4.3 µM,0.09 µM,2.33 µM,"COc1cccc(-c2cc(NC(=O)c3cc4ccc(NS(C)(=O)=O)cc4[nH]3)cc(-c3ccc(F)cc3F)c2)n1 [Example 383, N-(2′,4′-difluoro-5-(6-methoxypyridin-2-yl)-[1,1′-biphenyl]-3-yl)-6-(methylsulfonamido)-1H-indole-2-carboxamide]"
,> 10 µM,> 10 µM,6.3 µM,"CS(=O)(=O)Nc1ccc2c(Cl)c(C(=O)Nc3cccc(-c4ccc(F)cc4F)c3)sc2c1 [Example 111, 3-chloro-N-(2′,4′-difluoro-[1,1′-biphenyl]-3-yl)-6-(methylsulfonamido)benzo[b]thiophene-2-carboxamide]"
,3.8 µM,0.7 µM,0.28 µM,"CS(=O)(=O)Nc1ccc2cc(C(=O)Nc3cc(OC(F)F)cc(-c4ccc(F)cc4F)c3)[nH]c2c1 [Example 369, N-(5-(difluoromethoxy)-2′,4′-difluoro-[1,1′-biphenyl]-3-yl)-6-(methylsulfonamido)-1H-indole-2-carboxamide]"
,1.1 µM,0.29 µM,0.15 µM,"CC(C)(c1cc(Br)cc(NC(=O)c2cc3ccc(NS(C)(=O)=O)cc3[nH]2)c1)c1cccc(OC(F)F)c1 [Example 20, N-(3-bromo-5-(2-(3-(difluoromethoxy)phenyl)propan-2-yl)phenyl)-6-(methylsulfonamido)-1H-indole-2-carboxamide]"
,7.7 µM,5.2 µM,1.3 µM,"CN(C)c1cc(NC(=O)c2cc3cc(NS(C)(=O)=O)ccc3o2)cc(-c2ccc(F)cc2F)c1 [Example 376, N-(5-(dimethylamino)-2′,4′-difluoro-[1,1′-biphenyl]-3-yl)-5-(methylsulfonamido)benzofuran-2-carboxamide]"
,7.8 µM,0.9 µM,1.4 µM,"CS(=O)(=O)Nc1ccc2cc(C(=O)Nc3cc(-c4ccc(F)cc4F)cc(N4CCCCC4)c3)[nH]c2c1 [Example 371, N-(2′,4′-difluoro-5-(piperidin-1-yl)-[1,1′-biphenyl]-3-yl)-6-(methylsulfonamido)-1H-indole-2-carboxamide]"
